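Growth conditions: 96-well plates. Treatment: test compound, 48 hours, 5 concentrations. Analysis: linear interpolation between bracketing concentrations; unreached endpoints set to highest concentration. TGI denotes the concentration required for complete inhibition of growth.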
Tests used:
Assay in all cases: growth of human tumour cells (NCI), 48 h
SN12C renal = test system: SN12C renal
SR leukemia = test system: SR leukemia
OVCAR-4 ovarian = test system: OVCAR-4 ovarian
RXF 393 renal = test system: RXF 393 renal
OVCAR-5 ovarian = test system: OVCAR-5 ovarian
UO-31 renal = test system: UO-31 renal
RPMI-8226 leukemia = test system: RPMI-8226 leukemia
KM12 colon = test system: KM12 colon
SNB-78 CNS = test system: SNB-78 CNS
TK-10 renal = test system: TK-10 renal
DLD-1 colon = test system: DLD-1 colon
LOX IMVI melanoma = test system: LOX IMVI melanoma
MALME-3M melanoma = test system: MALME-3M melanoma
SK-MEL-5 melanoma = test system: SK-MEL-5 melanoma
NCI-H460 lung = test system: NCI-H460 lung
SF-268 CNS = test system: SF-268 CNS
M14 melanoma = test system: M14 melanoma
SK-OV-3 ovarian = test system: SK-OV-3 ovarian
A549 NSCLC = test system: A549 NSCLC
CAKI-1 renal = test system: CAKI-1 renal
COLO 205 colon = test system: COLO 205 colon
UACC-62 melanoma = test system: UACC-62 melanoma
ACHN renal = test system: ACHN renal
HOP-62 NSCLC = test system: HOP-62 NSCLC
HCT-116 colon = test system: HCT-116 colon
OVCAR-3 ovarian = test system: OVCAR-3 ovarian
IGROV1 ovarian = test system: IGROV1 ovarian
U251 CNS = test system: U251 CNS
DMS 114 small cell lung = test system: DMS 114 small cell lung
HOP-92 NSCLC = test system: HOP-92 NSCLC
SF-295 CNS = test system: SF-295 CNS
UACC-257 melanoma = test system: UACC-257 melanoma
NCI-H522 lung = test system: NCI-H522 lung
HT29 colon = test system: HT29 colon
SK-MEL-2 melanoma = test system: SK-MEL-2 melanoma
SK-MEL-28 melanoma = test system: SK-MEL-28 melanoma
HOP-18 NSCLC = test system: HOP-18 NSCLC
CCRF-CEM leukemia = test system: CCRF-CEM leukemia
NCI-H226 lung = test system: NCI-H226 lung
786-0 renal = test system: 786-0 renal
OVCAR-8 ovarian = test system: OVCAR-8 ovarian
HL-60(TB) leukemia = test system: HL-60(TB) leukemia
SNB-75 CNS = test system: SNB-75 CNS
HCT-15 colon = test system: HCT-15 colon
MOLT-4 leukemia = test system: MOLT-4 leukemia
SW-620 colon = test system: SW-620 colon
M19-MEL melanoma = test system: M19-MEL melanoma
SF-539 CNS = test system: SF-539 CNS
KM20L2 colon = test system: KM20L2 colon
LXFL 529 NSCLC = test system: LXFL 529 NSCLC
DMS 273 small cell lung = test system: DMS 273 small cell lung
NCI-H23 lung = test system: NCI-H23 lung
K-562 leukemia = test system: K-562 leukemia
SNB-19 CNS = test system: SNB-19 CNS
EKVX NSCLC = test system: EKVX NSCLC
NCI/ADR-RES ovarian = test system: NCI/ADR-RES ovarian
MDA-N = test system: MDA-N
HS 578T breast = test system: HS 578T breast
MDA-MB-231 breast = test system: MDA-MB-231 breast
MDA-MB-435 = test system: MDA-MB-435
A498 renal = test system: A498 renal
PC-3 prostate = test system: PC-3 prostate
HCC-2998 colon = test system: HCC-2998 colon
MCF7 breast = test system: MCF7 breast
DU-145 prostate = test system: DU-145 prostate
T-47D breast = test system: T-47D breast
BT-549 breast = test system: BT-549 breast

Measured: TGI

N#CC(NNC(=O)c1ccccc1O)c1ccccc1 (stereo unspecified)
6.03 µM: UO-31 renal
76.6 µM: NCI-H226 lung
52.5 µM: HL-60(TB) leukemia
4.87 µM: DMS 114 small cell lung
85.9 µM: OVCAR-3 ovarian
61.8 µM: RXF 393 renal
24.8 µM: SR leukemia
52.2 µM: NCI-H522 lung
1.93 µM: UACC-62 melanoma
not listed: SNB-19 CNS | EKVX NSCLC | NCI/ADR-RES ovarian | MDA-N | HS 578T breast | MDA-MB-231 breast | MDA-MB-435 | A498 renal | PC-3 prostate | HCC-2998 colon | MCF7 breast | DU-145 prostate | T-47D breast | BT-549 breast
> 100 µM: all other assays above

Cc1cc(N)ccc1C=O
not listed: SNB-78 CNS | DLD-1 colon | DMS 114 small cell lung | SF-295 CNS | HOP-18 NSCLC | M19-MEL melanoma | KM20L2 colon | LXFL 529 NSCLC | DMS 273 small cell lung
> 100 µM: all other assays above

CCOC(=O)c1nc2ccccc2nc1Oc1ccc(OC)cc1
not listed: SNB-78 CNS | DLD-1 colon | CAKI-1 renal | DMS 114 small cell lung | HOP-18 NSCLC | SNB-75 CNS | M19-MEL melanoma | KM20L2 colon | LXFL 529 NSCLC | DMS 273 small cell lung | NCI-H23 lung | HCC-2998 colon
> 100 µM: all other assays above

— PubChem BioAssay (NCI)
